Experimental data reported in patent US20210355547A1, “NON-INVASIVE URINARY BIOMARKERS FOR THE DETECTION OF UROTHELIAL CARCINOMA OF THE BLADDER” (THE JOHNS HOPKINS UNIVERSITY, priority 2018, published 2021).

Key:
[1] = test system: spheroid CD24-sh and CD24-Ctrl BFTC 905, BFTC 909, and 5637 cells; test: Cell viability assay (MTT assay) after cisplatin treatment; type: cell-based; conditions: 5 μM CDDP, 72 h; spheroid CD24-sh vs spheroid CD24-Ctrl cells
Procedure: (§1) FIG. 2A-2E. The chemoresistant and tumorigenic abilities attenuated by CD24 knockdown in BFTC 905, BFTC 909, and 5637 cell lines. (FIG. 2A) Cell viability after 5 μM cisplatin (CDDP) treatment for 72 h in the spheroid CD24-sh cells, as measured by MTT assay. Cell viability was expressed as the ratio of absorbance values of the spheroid CD24-sh cells related to the spheroid CD24-Ctrl cells considered as 1.0. Data are from three independent experiments. (FIG. 2B) An apoptosis assay of spheroid CD24-sh cells treated with 5 μM CDDP for 72 h. Upper, representative images of early apoptosis (bottom right quadrant) and late apoptosis (top right quadrant); Lower, percentage of apoptotic cells. (FIG. 2C) Western blotting analysis of ABCG2, YAP1, and CD133 in stable CD24-sh and CD24-Ctrl cells. (FIG. 2D) Limiting-dilution xenograft assays in stable spheroid CD24-sh BFTC 909 (upper) and BFTC 905 (lower) cells. Tumor growth was measured after subcutaneous injection of serially diluted spheroid cells (1×10^4, 1×10^3, or 1×10^2 cells per flank) into both flanks of NSG mice (five mice per group). SP, Spheroid. […]
Cell viability assay (MTT assay). Cell viability was measured using the 3-(4, 5-dimethyl thiazol-2-yl)-2, 5-diphenyltetrazolium bromide (MTT) Proliferation Assay Kit (ATCC; Manassas, Va., USA) according to the manufacturer's protocol. […]

[2] = test system: spheroid CD24-sh and CD24-Ctrl BFTC 905, BFTC 909, and 5637 cells; test: Apoptosis assay (PE Annexin V / 7-AAD flow cytometry) after CDDP; type: cell-based; conditions: 5 μM CDDP, 72 h; spheroid cells with CD24 knockdown
Procedure: as §1, with “Spheroid. (FIG. 2E) Tumor initiation frequency after the xenotransplantation of spheroid CD24-sh BFTC 909 (upper) and BFTC 905 (lower) cells.” for “Spheroid.”

N.N.[Cl][Pt][Cl] [cisplatin]
sensitivity of spheroid cells to CDDP treatment (cell viability) [1]: spheroid CD24-sh cells were more sensitive to CDDP treatment than spheroid CD24-Ctrl cells
anti-apoptotic ability against CDDP treatment [2]: CD24 knockdown significantly attenuated the anti-apoptotic ability against CDDP treatment
